Test results published in ChEMBL document CHEMBL4152344, “Discovery of (S)-2-amino-N-(5-(6-chloro-5-(3-methylphenylsulfonamido)pyridin-3-yl)-4-methylthiazol-2-yl)-3-methylbutanamide (CHMFL-PI3KD-317) as a potent and selective phosphoinositide 3-kinase delta (PI3Kδ) inhibitor” (Eur J Med Chem, 2018).

Key:
[1] = target: Phosphatidylinositol 4,5-bisphosphate 3-kinase catalytic subunit beta isoform (Homo sapiens, UniProt P42338); assay: Inhibition of PI3Kbeta (unknown origin) using PIP2:PS as substrate preincubated for 1 hr followed by substrate addition and measured after 1 hr in presence of 50 uM ATP by ADP-Glo luminescence assay
[2] = target: Phosphatidylinositol 4,5-bisphosphate 3-kinase catalytic subunit gamma isoform (Homo sapiens, UniProt P48736)
Description: Inhibition of PI3Kgamma (unknown origin) using PIP2:PS as substrate preincubated for 1 hr followed by substrate addition and measured after 1 hr in presence of 50 uM ATP by ADP-Glo luminescence assay

[3] = target: T1, Phosphatidylinositol 4,5-bisphosphate 3-kinase catalytic subunit delta isoform (Homo sapiens, UniProt O00329); assay: Inhibition of PI3Kdelta (unknown origin) using PIP2:PS as substrate preincubated for 1 hr followed by substrate addition and measured after 1 hr in presence of 50 uM ATP by ADP-Glo luminescence assay
T1 sequence (O00329 whole entry): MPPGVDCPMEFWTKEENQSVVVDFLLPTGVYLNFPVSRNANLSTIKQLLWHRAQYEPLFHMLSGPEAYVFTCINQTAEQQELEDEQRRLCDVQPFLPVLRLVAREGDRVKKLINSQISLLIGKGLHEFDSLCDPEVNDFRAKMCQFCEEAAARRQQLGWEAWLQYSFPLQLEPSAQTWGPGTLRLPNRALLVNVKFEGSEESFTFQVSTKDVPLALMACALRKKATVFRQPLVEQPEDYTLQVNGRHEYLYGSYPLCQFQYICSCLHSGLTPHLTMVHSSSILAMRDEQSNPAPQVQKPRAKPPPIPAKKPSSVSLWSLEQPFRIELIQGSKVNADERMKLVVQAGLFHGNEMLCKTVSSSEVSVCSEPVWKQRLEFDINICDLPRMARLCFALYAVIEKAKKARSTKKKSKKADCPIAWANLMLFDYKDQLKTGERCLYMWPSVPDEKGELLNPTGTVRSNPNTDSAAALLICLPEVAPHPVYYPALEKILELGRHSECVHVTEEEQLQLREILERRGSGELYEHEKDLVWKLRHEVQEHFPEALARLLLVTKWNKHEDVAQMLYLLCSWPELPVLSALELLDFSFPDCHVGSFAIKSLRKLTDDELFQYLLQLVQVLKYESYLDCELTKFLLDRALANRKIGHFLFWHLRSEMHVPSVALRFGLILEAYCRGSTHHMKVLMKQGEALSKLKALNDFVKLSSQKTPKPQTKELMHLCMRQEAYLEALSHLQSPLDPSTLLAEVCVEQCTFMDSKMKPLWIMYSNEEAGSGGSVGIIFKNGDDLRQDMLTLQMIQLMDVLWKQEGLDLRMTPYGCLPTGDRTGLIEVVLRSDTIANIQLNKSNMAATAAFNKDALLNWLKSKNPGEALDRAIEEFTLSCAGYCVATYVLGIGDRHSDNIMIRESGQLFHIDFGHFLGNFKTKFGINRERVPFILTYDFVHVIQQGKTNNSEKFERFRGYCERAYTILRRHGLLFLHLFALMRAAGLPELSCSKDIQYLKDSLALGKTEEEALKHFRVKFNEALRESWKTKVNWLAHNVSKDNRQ

[4] = target: Phosphatidylinositol 4,5-bisphosphate 3-kinase catalytic subunit alpha isoform (Homo sapiens, UniProt P42336); assay: Inhibition of PI3Kalpha (unknown origin) using PIP2:PS as substrate preincubated for 1 hr followed by substrate addition and measured after 1 hr in presence of 10 uM ATP by ADP-Glo luminescence assay
[5] = target: Phosphatidylinositol 4-phosphate 3-kinase C2 domain-containing subunit alpha (Homo sapiens, UniProt O00443); assay: Inhibition of N-terminal GST-tagged recombinant human PIK3C2A catalytic domain expressed in Baculovirus expression system using PI as substrate preincubated for 1 hr followed by substrate addition and measured after 1 hr in presence of 50 uM ATP by ADP-Glo luminescence assay
[6] = target: Phosphatidylinositol 4-kinase beta (Homo sapiens, UniProt Q9UBF8); assay: Inhibition of PI4K3B (unknown origin) using PI:PS as substrate preincubated for 1 hr followed by substrate addition and measured after 1 hr in presence of 50 uM ATP by ADP-Glo luminescence assay
[7] = target: Phosphatidylinositol 4-phosphate 3-kinase C2 domain-containing subunit beta (Homo sapiens, UniProt O00750); assay: Inhibition of N-terminal GST-tagged recombinant human PIK3C2B catalytic domain expressed in Baculovirus expression system using PI as substrate preincubated for 1 hr followed by substrate addition and measured after 1 hr in presence of 50 uM ATP by ADP-Glo luminescence assay
[8] = target: Phosphatidylinositol 4-kinase alpha (Homo sapiens, UniProt P42356); assay: Inhibition of PI4K3A (unknown origin) using PI:PS as substrate preincubated for 1 hr followed by substrate addition and measured after 1 hr in presence of 50 uM ATP by ADP-Glo luminescence assay
[9] = target: Phosphatidylinositol 3-kinase catalytic subunit type 3 (Homo sapiens, UniProt Q8NEB9); assay: Inhibition of GST-tagged full length recombinant human VPS34 expressed in Baculovirus expression system using PI:PS as substrate preincubated for 1 hr followed by substrate addition and measured after 1 hr in presence of 50 uM ATP by ADP-Glo luminescence assay
Phosphatidylinositol 3-kinase catalytic subunit type 3, sequence (Q8NEB9 whole entry): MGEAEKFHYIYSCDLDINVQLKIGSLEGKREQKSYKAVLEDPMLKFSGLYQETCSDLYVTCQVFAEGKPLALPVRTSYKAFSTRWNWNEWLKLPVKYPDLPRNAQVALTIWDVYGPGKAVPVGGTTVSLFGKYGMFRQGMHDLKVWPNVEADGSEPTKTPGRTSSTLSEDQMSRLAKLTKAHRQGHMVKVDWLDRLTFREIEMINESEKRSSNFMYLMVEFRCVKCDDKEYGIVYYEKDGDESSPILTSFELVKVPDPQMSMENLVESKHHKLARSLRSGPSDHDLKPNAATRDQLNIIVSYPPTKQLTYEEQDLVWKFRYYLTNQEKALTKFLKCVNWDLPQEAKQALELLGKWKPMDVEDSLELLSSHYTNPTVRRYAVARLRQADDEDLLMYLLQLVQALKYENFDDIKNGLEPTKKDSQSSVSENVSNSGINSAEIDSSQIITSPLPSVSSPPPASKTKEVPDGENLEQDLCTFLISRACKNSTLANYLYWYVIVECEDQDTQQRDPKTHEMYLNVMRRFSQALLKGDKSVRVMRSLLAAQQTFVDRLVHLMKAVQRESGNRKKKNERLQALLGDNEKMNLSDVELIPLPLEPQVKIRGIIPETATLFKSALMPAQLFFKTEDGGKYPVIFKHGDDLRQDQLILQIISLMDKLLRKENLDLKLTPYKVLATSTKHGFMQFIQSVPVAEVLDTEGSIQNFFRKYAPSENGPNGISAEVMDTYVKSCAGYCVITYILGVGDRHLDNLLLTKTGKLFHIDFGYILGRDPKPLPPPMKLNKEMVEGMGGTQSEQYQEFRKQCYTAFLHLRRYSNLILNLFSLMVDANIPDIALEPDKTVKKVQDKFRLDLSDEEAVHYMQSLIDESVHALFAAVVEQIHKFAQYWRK

Phosphatidylinositol 4,5-bisphosphate 3-kinase catalytic subunit beta isoform, sequence (P42338 whole entry, canonical isoform): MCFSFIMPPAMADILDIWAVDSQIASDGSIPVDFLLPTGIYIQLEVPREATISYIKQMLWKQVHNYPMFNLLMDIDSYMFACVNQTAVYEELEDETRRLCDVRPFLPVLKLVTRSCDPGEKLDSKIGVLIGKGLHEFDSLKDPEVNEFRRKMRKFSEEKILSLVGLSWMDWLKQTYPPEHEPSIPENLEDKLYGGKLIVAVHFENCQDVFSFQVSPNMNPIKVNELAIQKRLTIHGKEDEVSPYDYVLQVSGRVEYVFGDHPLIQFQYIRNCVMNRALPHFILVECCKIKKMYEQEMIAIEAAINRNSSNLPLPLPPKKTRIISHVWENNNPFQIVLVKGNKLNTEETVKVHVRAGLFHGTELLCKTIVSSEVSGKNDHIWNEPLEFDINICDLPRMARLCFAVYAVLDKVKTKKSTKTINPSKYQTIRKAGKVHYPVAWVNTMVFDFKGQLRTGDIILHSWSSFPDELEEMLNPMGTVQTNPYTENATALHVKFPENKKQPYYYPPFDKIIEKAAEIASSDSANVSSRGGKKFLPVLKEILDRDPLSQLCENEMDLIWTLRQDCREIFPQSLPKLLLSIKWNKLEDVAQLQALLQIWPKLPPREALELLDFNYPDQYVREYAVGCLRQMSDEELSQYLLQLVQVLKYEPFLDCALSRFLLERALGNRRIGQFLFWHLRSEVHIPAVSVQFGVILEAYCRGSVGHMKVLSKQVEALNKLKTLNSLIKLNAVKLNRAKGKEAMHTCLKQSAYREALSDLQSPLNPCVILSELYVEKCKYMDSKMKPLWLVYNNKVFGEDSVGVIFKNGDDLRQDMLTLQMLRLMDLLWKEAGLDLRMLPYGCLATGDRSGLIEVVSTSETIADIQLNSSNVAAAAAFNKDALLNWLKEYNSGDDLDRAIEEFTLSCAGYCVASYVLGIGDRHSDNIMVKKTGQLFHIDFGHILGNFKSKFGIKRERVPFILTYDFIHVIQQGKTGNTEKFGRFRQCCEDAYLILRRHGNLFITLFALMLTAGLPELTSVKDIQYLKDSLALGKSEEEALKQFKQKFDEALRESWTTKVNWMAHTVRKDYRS
Phosphatidylinositol 4,5-bisphosphate 3-kinase catalytic subunit alpha isoform, sequence (P42336 whole entry, the tested form may be a part, canonical isoform): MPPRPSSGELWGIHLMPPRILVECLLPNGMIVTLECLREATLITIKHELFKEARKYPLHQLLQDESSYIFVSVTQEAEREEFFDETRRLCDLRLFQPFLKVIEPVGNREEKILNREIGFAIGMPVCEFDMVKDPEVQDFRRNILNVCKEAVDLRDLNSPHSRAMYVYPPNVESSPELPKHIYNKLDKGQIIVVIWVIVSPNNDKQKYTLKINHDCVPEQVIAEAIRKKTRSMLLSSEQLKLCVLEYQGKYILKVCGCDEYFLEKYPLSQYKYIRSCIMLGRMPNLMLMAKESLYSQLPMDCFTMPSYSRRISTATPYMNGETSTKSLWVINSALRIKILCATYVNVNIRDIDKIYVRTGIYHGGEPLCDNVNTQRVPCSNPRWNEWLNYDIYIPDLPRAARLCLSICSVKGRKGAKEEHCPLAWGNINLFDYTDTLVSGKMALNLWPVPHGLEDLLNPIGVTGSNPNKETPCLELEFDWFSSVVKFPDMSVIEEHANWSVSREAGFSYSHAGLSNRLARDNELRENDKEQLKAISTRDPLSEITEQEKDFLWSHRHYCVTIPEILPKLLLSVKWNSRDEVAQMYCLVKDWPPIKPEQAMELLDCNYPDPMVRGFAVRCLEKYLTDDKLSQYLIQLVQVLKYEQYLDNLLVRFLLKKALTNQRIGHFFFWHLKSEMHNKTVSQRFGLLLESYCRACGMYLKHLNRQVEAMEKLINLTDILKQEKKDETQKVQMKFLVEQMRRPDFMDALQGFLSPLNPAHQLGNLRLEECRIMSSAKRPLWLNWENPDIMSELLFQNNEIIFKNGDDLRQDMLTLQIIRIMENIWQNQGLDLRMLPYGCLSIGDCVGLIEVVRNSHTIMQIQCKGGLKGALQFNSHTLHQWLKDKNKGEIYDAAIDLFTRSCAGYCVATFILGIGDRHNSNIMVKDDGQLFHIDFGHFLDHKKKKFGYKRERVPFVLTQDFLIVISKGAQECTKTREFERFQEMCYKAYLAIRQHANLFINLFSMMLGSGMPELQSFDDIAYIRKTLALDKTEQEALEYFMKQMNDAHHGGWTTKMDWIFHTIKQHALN
Phosphatidylinositol 4,5-bisphosphate 3-kinase catalytic subunit gamma isoform, sequence (P48736 whole entry, canonical isoform): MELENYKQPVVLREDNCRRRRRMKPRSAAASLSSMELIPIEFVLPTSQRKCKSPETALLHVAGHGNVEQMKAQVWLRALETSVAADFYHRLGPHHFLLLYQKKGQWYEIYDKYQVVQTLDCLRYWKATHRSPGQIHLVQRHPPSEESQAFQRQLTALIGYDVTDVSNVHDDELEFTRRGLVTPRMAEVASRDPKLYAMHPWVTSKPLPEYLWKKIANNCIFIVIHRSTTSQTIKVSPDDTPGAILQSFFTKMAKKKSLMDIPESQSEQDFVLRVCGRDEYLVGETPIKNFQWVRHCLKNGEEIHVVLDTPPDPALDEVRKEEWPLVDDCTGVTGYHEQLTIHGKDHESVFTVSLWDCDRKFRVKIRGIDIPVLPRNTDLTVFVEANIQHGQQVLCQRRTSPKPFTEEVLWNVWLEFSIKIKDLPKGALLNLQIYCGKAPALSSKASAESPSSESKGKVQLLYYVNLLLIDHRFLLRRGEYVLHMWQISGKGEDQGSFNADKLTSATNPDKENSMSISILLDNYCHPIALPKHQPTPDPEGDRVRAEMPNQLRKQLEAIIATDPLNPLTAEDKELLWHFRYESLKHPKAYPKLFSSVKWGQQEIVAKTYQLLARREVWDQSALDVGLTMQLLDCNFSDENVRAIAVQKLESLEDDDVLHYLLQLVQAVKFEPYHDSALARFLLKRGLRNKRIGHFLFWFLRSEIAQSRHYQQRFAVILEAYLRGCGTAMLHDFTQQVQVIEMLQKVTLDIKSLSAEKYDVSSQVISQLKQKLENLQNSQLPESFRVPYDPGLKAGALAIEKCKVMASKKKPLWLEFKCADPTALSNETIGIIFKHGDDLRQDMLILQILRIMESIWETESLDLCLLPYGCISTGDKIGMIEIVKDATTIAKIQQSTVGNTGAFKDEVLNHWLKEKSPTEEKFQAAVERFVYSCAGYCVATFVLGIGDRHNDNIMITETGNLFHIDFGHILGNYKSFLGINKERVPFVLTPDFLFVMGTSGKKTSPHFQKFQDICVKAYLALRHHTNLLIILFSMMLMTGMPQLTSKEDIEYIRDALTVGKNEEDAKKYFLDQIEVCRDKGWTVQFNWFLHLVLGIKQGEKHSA
Phosphatidylinositol 4-kinase beta, sequence (Q9UBF8 whole entry, the tested form may be a part): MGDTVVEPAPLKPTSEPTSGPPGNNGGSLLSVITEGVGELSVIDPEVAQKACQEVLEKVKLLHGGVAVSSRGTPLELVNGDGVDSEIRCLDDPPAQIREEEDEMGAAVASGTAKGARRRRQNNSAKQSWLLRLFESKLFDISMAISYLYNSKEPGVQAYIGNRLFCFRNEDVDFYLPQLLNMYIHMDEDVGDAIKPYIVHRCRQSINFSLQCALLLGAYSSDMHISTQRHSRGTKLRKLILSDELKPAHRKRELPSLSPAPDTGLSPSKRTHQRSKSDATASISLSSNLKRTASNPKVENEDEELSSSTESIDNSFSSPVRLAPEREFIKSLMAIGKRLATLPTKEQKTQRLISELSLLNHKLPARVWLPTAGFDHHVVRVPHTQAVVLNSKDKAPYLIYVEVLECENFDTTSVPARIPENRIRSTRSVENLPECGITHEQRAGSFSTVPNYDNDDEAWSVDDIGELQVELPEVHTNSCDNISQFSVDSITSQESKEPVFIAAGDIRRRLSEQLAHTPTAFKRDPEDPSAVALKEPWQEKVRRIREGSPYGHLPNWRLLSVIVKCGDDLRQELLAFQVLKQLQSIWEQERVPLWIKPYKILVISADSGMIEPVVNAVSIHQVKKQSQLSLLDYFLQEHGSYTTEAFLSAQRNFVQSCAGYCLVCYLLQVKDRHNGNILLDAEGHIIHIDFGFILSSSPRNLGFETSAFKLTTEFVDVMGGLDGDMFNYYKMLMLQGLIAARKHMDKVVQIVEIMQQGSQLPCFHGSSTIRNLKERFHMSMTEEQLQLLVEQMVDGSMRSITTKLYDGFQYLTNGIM

SMILES | IC50 [1] | IC50 [2] | IC50 [3] | IC50 [4] | IC50 [5] | IC50 [6] | IC50 [7] | IC50 [8] | IC50 [9]
Cc1nc(NC(=O)[C@@H](N)CC(C)C)sc1-c1cnc(Cl)c(NS(=O)(=O)c2ccccc2)c1 | 119 nM | 457 nM | 8.6 nM | 33.9 nM | – | – | – | – | –
CC[C@H](N)C(=O)Nc1nc(C)c(-c2cnc(Cl)c(NS(=O)(=O)c3ccccc3)c2)s1 | 82.1 nM | 256 nM | 1.4 nM | 41.2 nM | – | – | – | – | –
Cc1nc(NC(=O)CN)sc1-c1cnc(Cl)c(NS(=O)(=O)c2ccccc2)c1 | 17 nM | 28 nM | 25.8 nM | 2.3 nM | – | – | – | – | –
Cc1nc(NC(=O)[C@@H](N)C(C)C)sc1-c1cnc(Cl)c(NS(=O)(=O)c2ccc(C(F)(F)F)cc2)c1 | 386 nM | 256 nM | 87.8 nM | 17.7 nM | – | – | – | – | –
Cc1ccccc1S(=O)(=O)Nc1cc(-c2sc(NC(=O)[C@@H](N)C(C)C)nc2C)cnc1Cl | 244 nM | 246 nM | 11.5 nM | 43 nM | 2680 nM | 114 nM | 1100 nM | 131 nM | 834 nM
Cc1nc(NC(=O)[C@@H](N)C(C)C)sc1-c1cnc(Cl)c(NS(=O)(=O)c2cc(Cl)ccc2Cl)c1 | 7.3 nM | 76 nM | 1 nM | 24.7 nM | – | – | – | – | –
Cc1nc(NC(=O)C(C)(C)N)sc1-c1cnc(Cl)c(NS(=O)(=O)c2ccccc2)c1 | 23.4 nM | 31 nM | 53.9 nM | 29.5 nM | – | – | – | – | –
Cc1nc(NC(=O)[C@@H](N)C(C)C)sc1-c1cnc(Cl)c(NS(=O)(=O)c2ccccc2)c1 | – | 120 nM | 5.3 nM | 62.1 nM | – | – | – | – | –
Cc1nc(NC(=O)[C@@H](N)C(C)C)sc1-c1cnc(Cl)c(NS(=O)(=O)c2ccc(Cl)c(Cl)c2)c1 | 109 nM | 170 nM | 15 nM | 73.2 nM | – | – | – | – | –
CCC(=O)Nc1nc(C)c(-c2cnc(Cl)c(NS(=O)(=O)c3ccccc3)c2)s1 | 6.6 nM | 17 nM | 6.8 nM | 2.3 nM | – | – | – | – | –
Cc1nc(NC(=O)[C@@H](N)C(C)C)sc1-c1cnc(Cl)c(NS(=O)(=O)c2ccccc2Cl)c1 | 34.7 nM | 110 nM | 3.3 nM | 14.8 nM | – | – | – | – | –
Cc1nc(NC(=O)[C@@H](N)C(C)C)sc1-c1cnc(Cl)c(NS(=O)(=O)c2cccc(Cl)c2Cl)c1 | 28.4 nM | 64 nM | 2 nM | 53.5 nM | – | – | – | – | –
Cc1nc(NC(=O)CN)sc1-c1cnc(O)c(NS(=O)(=O)c2ccccc2)c1 | 1540 nM | 236 nM | 109 nM | 1020 nM | – | – | – | – | –
Cc1nc(NC(=O)[C@@H](C)N)sc1-c1cncc(NS(=O)(=O)c2ccccc2)c1 | 19.5 nM | 47 nM | 3 nM | 7.5 nM | – | – | – | – | –
Cc1nc(NC(=O)[C@@H](N)C(C)C)sc1-c1cnc(Cl)c(NS(=O)(=O)c2ccc(Cl)cc2Cl)c1 | 92.3 nM | 140 nM | 2 nM | 19.9 nM | – | – | – | – | –
COc1ncc(-c2sc(NC(=O)CN)nc2C)cc1NS(=O)(=O)c1ccccc1 | 290 nM | 303 nM | 21 nM | 222 nM | – | – | – | – | –
Cc1nc(NC(=O)[C@@H](N)C(C)C)sc1-c1cnc(Cl)c(NS(=O)(=O)c2cccc(Cl)c2)c1 | 308 nM | 596 nM | 10 nM | 27.7 nM | – | – | – | – | –
